# From patent US20180258404A1, “METHODS OF GENERATING NEPHRONS FROM HUMAN PLURIPOTENT STEM CELLS” (THE BRIGHAM AND WOMEN'S HOSPITAL, INC., priority 2015, published 2018)
# “Also recorded” adds a separate entry of the source.
# B1: WNT4: growth factor tested in 3D culture screening (protein, UniProt P56705 23-351, looked up)
# Protein Wnt-4: SNWLYLAKLSSVGSISEEETCEKLKGLIQRQVQMCKRNLEVMDSVRRGAQLAIEECQYQFRNRRWNCSTLDSLPVFGKVVTQGTREAAFVYAISSAGVAFAVTRACSSGELEKCGCDRTVHGVSPQGFQWSGCSDNIAYGVAFSQSFVDVRERSKGASSSRALMNLHNNEAGRKAILTHMRVECKCHGVSGSCEVKTCWRAVPPFRQVGHALKEKFDGATEVEPRRVGSSRALVPRNAQFKPHTDEDLVYLEPSPDFCEQDMRSGVLGTRGRTCNKTSKAIDGCELLCCGRGFHTAQVELAERCSCKFHWCCFVKCRQCQRLVELHTCR
# B2: mouse Wnt9b: growth factor tested in 3D culture screening (protein, UniProt O35468 24-359, looked up)
# Protein Wnt-9b: AAYFGLTGREVLTPFPGLGTAAAPAQAGAHLKQCDLLKLSRRQKQLCRREPGLAETLRDAAHLGLLECQFQFRQERWNCSLEGRTGLLQRGFKETAFLYAVSAAALTHALARACSAGRMERCTCDDSPGLESRQAWQWGVCGDNLKYSTKFLSNFLGPKRGSKDLRARADAHNTHVGIKAVKSGLRTTCKCHGVSGSCAVRTCWKQLSPFRETGQVLKLRYDTAVKVSSATNEALGRLELWAPAKPGGPAKGLAPRPGDLVYMEDSPSFCRPSKYSPGTAGRVCSRDSSCSSLCCGRGYDTQSRMVVFSCHCQVQWCCYVECQQCAQQELVYTCKR
# B3: BMP7: growth factor tested in 3D culture screening (protein, UniProt P18075 293-431, looked up)
# Bone morphogenetic protein 7: STGSKQRSQNRSKTPKNQEALRMANVAENSSSDQRQACKKHELYVSFRDLGWQDWIIAPEGYAAYYCEGECAFPLNSYMNATNHAIVQTLVHFINPETVPKPCCAPTQLNAISVLYFDDSSNVILKKYRNMVVRACGCH
# Test system: NPCs in 3D culture
# Test: Growth factor and small molecule screening in 3D culture (LTL+ tubules)
# Format: cell-based, human
# Settings: added in 3D culture from day 10
# Description: FIG. 10. Spontaneous differentiation of SIX2+ cells into nephrons and growth factor screening in 3D culture. (a) Staining with PAX8 and LHX1 in hESCs on day 10 of the differentiation. hESCs were differentiated with CHIR 8 µM for 4 days, activn 10 ng/ml for 3 days, and FGF9 10 ng/ml for 3 days. […] Scale bar: 50 μm. (b) Brighfield imaging for hESCs on day 10 and 21 of the differentiation. FGF9 was withdrawn on day 10, and cells were cultured in the basic medium by day 21. Scale bars: 50 μm. (c) Brightfield and immunocytochemistry for LTL and NPHS1 in hESCs on day 28 of the differentiation. Scale bar: 50 μm. (d) The protocol for growth factor screening. Cells were replated to 3D culture on day 10, and the listed growth factors and small molecules were tested. (e) The number of LTL+ tubules in the organoids. […] (f) Brightfield imaging of 3D co-culture with an ureteric bud cell sphere. Scale bar: 100 μm. (g) Whole-mountstaining for LTL in the organoids on day 16. Scale bar: 100 μm. (h) Immunohistochemistry of the organoids on day 16. Scale bars: 50 μm. LTL: lotus tetragonolobus lectin. NPHS1: Nephrin.
# To test whether the formation of epithelial structures could be facilitated by 3D culture conditions, on day 10, at the time of FGF9 withdrawal, the Inventors replated NPCs in ultra-low-attachment, round-bottom 96-well plates and cultured them for 1 week. NPCs formed 3D spherical aggregates, one per 96-well, in suspension culture.
row,Molecule,number of LTL+ tubules in the organoids
1,O=C(Nc1cccc2cccnc12)c1ccc(N2C(=O)[C@@H]3[C@H](C2=O)[C@@H]2C=C[C@H]3C2)cc1 [IWR-1],did not significantly increase the number of LTL+ tubules
2,NC(=O)c1ccc(-c2nc(-c3ccc4c(c3)OCO4)c(-c3ccccn3)[nH]2)cc1 [SB431542],did not significantly increase the number of LTL+ tubules
3,HGF: growth factor tested in 3D culture screening,did not significantly increase the number of LTL+ tubules; also recorded: showed a tendency to increase LTL+ tubules
4,IGF-1: growth factor tested in 3D culture screening,did not significantly increase the number of LTL+ tubules
5,JAG1: growth factor tested in 3D culture screening,did not significantly increase the number of LTL+ tubules
6,B1,did not significantly increase the number of LTL+ tubules
7,B2,did not significantly increase the number of LTL+ tubules
8,B3,did not significantly increase the number of LTL+ tubules
